Read-outs that look alike come from different tables or passages of the source.

The target of one experiment is T1, CHK1sv1 (Homo sapiens, UniProt O14757).
T1 construct: made in house; host or cells: SF9 insect cells (baculovirus, pVL1393 transfer vector)
T1 sequence (O14757 with tags, fused parts or gaps): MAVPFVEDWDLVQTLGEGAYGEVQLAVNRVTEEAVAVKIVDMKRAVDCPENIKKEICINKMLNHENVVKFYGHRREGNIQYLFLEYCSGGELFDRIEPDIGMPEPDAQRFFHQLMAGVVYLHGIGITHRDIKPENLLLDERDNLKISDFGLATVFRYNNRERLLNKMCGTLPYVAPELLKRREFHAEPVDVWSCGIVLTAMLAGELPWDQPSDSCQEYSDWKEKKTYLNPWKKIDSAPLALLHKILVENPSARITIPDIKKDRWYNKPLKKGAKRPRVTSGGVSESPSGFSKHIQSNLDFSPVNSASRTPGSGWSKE
Put plainly: CHK1sv1 kinase assay (Homogenous Time-Resolved Fluorescence, synthetic peptide substrate). The format is biochemical. As to the method: CHK1sv1 activity was assayed in vitro using a synthetic peptide substrate. The phophopeptide product was quantitated using a Homogenous Time-Resolved Fluorescence assay system (Park et al., 1999, Anal. Biochem. 269:94-104). The reaction mixture contained 40 mM HEPES, pH 7.3; 100 mM NaCl; 10 mM MgCl2; 2 mM dithiothreitol; 0.1% BSA; 0.1 mM ATP; 0.5 μM peptide substrate; and 0.1 nM CHK1sv1 enzyme in a final volume of 40 μl. […] The kinase reaction was incubated for 30 minutes at 22° C., and then terminated with 60 μl Stop/Detection Buffer (40 mM HEPES, pH 7.3; 10 mM EDTA; 0.125% Triton X-100; 1.25% BSA; 250 nM PhycoLink Streptavidin-Allophycocyanin (APC) Conjugate (Prozyme, San Leandro, Calif.); and […] Europium-chelate labeled anti-phosphotyrosine antibody (PY20, Perkin Elmer, Boston, Mass.)). The reaction was allowed to equilibrate for 2 hours at 22° C., and relative fluorescent units were read on a Discovery plate reader (Packard Biosciences). ATP Km was determined by varying ATP concentration from 0.003 to 3 mM in the reaction described above and determining the relative enzymatic rates. […] CHK1sv1 Vmax was calculated by determining the amount of phospho-peptide product formed per microgram of CHKsv1 when both ATP and CDC25C peptide substrate are at saturating concentrations.

A further experiment concerns the target T2, reference CHK1 (Homo sapiens, UniProt O14757).
T2 sequence (O14757 1-476): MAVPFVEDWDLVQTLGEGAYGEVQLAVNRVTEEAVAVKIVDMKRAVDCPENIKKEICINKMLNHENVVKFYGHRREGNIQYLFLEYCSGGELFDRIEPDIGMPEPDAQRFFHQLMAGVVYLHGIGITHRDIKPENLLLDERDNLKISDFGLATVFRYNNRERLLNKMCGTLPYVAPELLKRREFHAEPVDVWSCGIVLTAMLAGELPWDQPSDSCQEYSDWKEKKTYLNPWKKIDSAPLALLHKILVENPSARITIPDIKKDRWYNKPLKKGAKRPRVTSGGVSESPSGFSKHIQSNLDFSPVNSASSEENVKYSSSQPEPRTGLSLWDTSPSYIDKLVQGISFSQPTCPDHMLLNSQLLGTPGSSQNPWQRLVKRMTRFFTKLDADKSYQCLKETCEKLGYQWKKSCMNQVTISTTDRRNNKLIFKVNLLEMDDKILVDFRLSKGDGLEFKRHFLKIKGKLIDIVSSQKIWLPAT
As to conditions: cited from earlier work.

Setting [1] is: read-out: CHK1sv1 inhibition by derivatives of staurosporin, IC50 values, CHK1sv1 enzyme 0.1 nM, 0.1 mM ATP, 0.5 μM peptide substrate, 30 minutes at 22° C.

Usually IC50 stands for the concentration needed to halve the response being measured. With `Cn1c2ccccc2c2c3c(c4c5ccccc5n(CCC#N)c4c21)CNC3=O` [Gö6976], the IC50 at CHK1sv1 (setting [1]) is 0.75 nM; on reference CHK1 (previously published (Davies et al., 2000), read-out: IC50 value for the reference CHK1 inhibited by Gö6976), 3 nM.
`COC(=O)[C@@]1(O)C[C@H]2O[C@]1(C)n1c3ccccc3c3c4c(c5c6ccccc6n2c5c31)C(=O)NC4` [K252A]: the IC50 at CHK1sv1 worked out at 50 nM.
As for `Cn1cc(C2=C(c3cn(CCCN)c4ccccc34)C(=O)NC2=O)c2ccccc21` [RO317549], on CHK1sv1 (setting [1]), the IC50 turned out to be 125 nM.
For the compound `CN(C)C[C@H]1CCn2c(c(C3=C(c4cn(C)c5ccccc45)C(=O)NC3=O)c3ccccc32)C1` [RO-320432], the midpoint of inhibition against CHK1sv1 (CHK1sv1 enzyme 0.1 nM, 0.1 mM ATP, 0.5 μM peptide substrate, 30 minutes at 22° C.), the IC50, lay at 390 nM.
The Km is the substrate concentration at which the rate is half of its maximum. Take “CDC25C substrate: peptide derived from the known CHK1 kinase substrate CDC25C, GLYRSPSMPENLNR (SynPep) (listed as Homo sapiens)”: the Km with CHK1sv1 (CDC25C-derived peptide varied from 0.0003 to 1 mM) is 120 µM; in the experiment with reference CHK1 (previously described (O'Neill et al., 2002; Jackson et al., 2000), read-out: Km (CDC25C substrate)), 12 µM.

These data come from patent US20050266469A1, “Alternatively spliced isoforms of checkpoint kinase 1 (CHK1)” (priority 2004, published 2005).
